Consider 2 substances from ChEMBL document CHEMBL6092164, “Rational design, synthesis, and biophysical characterization of a peptidic MDM2-MDM4 interaction inhibitor” (Bioorg Med Chem, 2024).

This test has as its target E3 ubiquitin-protein ligase Mdm2 (Homo sapiens, UniProt Q00987). Kind of test: Binding affinity to RED dye fluorescently labelled full length human recombinant GST-tagged MDM2 expressed in Escherichia coli BL21 cells assessed as dissociation constant incubated for 60 mins in dark by Microscale Thermophoresis assay.

E3 ubiquitin-protein ligase Mdm2, sequence (Q00987 whole entry): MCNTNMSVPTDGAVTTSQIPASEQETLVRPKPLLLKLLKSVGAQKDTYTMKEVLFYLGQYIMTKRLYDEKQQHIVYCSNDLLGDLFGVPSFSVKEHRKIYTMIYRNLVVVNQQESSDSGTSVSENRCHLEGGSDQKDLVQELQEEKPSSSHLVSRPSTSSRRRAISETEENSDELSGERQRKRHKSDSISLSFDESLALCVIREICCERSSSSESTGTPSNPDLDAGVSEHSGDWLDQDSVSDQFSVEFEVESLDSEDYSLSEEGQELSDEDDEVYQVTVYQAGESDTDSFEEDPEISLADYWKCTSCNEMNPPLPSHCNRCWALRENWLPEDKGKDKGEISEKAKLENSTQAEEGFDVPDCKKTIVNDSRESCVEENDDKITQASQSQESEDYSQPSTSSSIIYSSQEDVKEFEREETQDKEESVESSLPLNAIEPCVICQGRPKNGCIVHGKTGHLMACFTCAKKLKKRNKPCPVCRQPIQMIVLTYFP

As usually defined, the Kd is the concentration at which binding is half-saturated. Take H-KVFIA-OH: the Kd is 19.2 µM. The figure for H-VAIKF-OH is > 1000 µM.
